# PMC12022903, “Evaluation of drug-drug interaction between Suraxavir Marboxil (GP681) and itraconazole, and assessment of the impact of gene polymorphism” (Frontiers in Pharmacology, 2025)
# Where “and” joins values, the source holds several entries; their conditions need not be identical. Identical values can stand only once. Like-named read-outs stand apart in the source and are kept apart here.
# How the values were obtained:
# [1] = design: method as in unpublished data; conditions: after oral GP681; ref unpublished data; cited from earlier work
# cytochrome P450 (CYP) = tested on: cytochrome P450 (CYP); design: method as in unpublished data; conditions: preclinical studies; ref unpublished data; cited from earlier work
# MDR1 [2] = tested on: MDR1; design: method as in unpublished data; conditions: preclinical studies; ref unpublished data; cited from earlier work
# MDR1 [3] = tested on: MDR1; design: method as in unpublished data; conditions: preclinical studies; ref unpublished data; cited from earlier work; remark: listed apart in the source
# [4] = tested on: avian influenza virus strains; conditions: ref unpublished data; cited from earlier work
# BCRP = tested on: BCRP; design: method as in unpublished data; conditions: preclinical studies; ref unpublished data; cited from earlier work
# OATP1B1 = tested on: OATP1B1; design: method as in unpublished data; conditions: preclinical studies; ref unpublished data; cited from earlier work
# plasma protein = tested on: plasma protein; design: method as in unpublished data; conditions: preclinical studies; ref unpublished data; cited from earlier work
# liver enzymes = tested on: liver enzymes; design: method as in unpublished data; conditions: preclinical studies; ref unpublished data; cited from earlier work
# [5] = design: method as in unpublished data; conditions: preclinical studies; ref unpublished data; cited from earlier work
# influenza virus = tested on: influenza virus; design: method as in preclinical studies; conditions: ref preclinical studies; cited from earlier work
# OAT1 = tested on: OAT1; design: method as in unpublished data; conditions: preclinical studies; ref unpublished data; cited from earlier work
# OATP1B3 = tested on: OATP1B3; design: method as in unpublished data; conditions: preclinical studies; ref unpublished data; cited from earlier work
# [6] = design: method as in Phase I study; conditions: ref Phase I study, cited from earlier work
# OAT3 = tested on: OAT3; design: method as in unpublished data; conditions: preclinical studies; ref unpublished data; cited from earlier work
# [7] = for GP1707D07 concentration: Period 1 GP681 monotherapy, individual subjects; for GP1707D07 concentration, Geo Mean / GP1707D07 concentration, Mean: plasma; for GP1707D07 concentration, Geo Mean: Geo Mean of subjects 301-312, Period 2 GP681-itraconazole co-administration; for GP1707D07 concentration, Mean: Mean of subjects 301-312, Period 2 GP681-itraconazole co-administration
smiles,measurement,setting,value
O=C1c2c(O)c(=O)ccn2N([C@@H]2c3ccccc3SCc3c2ccc(F)c3F)[C@@H]2COC3(CC3)CN12 [GP1707D07],share of the total radioactivity in serum,[1],approximately 95.4%
same,metabolizing enzymes,cytochrome P450 (CYP),"mainly metabolized by cytochrome P450 (CYP) 1A2, CYP 2C8, and CYP 3A4"
same,inhibition of transport activity of MDR1,MDR1 [2],nor do they inhibit the transport activity
same,substrate for the MDR1 transporter,MDR1 [3],"Neither Suraxavir Marboxil (GP681) nor its metabolite, GP1707D07, serves as substrates"
same,in vitro antiviral activity (average EC50 and EC90) compared with baloxavir,[4],better in vitro antiviral activity
same,in vitro inhibitory activity against avian influenza virus strains,[4],inhibitory activity against all tested avian influenza virus strains
same,substrate for the BCRP transporter,BCRP,"Neither Suraxavir Marboxil (GP681) nor its metabolite, GP1707D07, serves as substrates"
same,inhibition of transport activity of OATP1B1,OATP1B1,nor do they inhibit the transport activity
same,plasma protein binding rate,plasma protein,high plasma protein binding rate
same,inhibition or induction of liver enzymes,liver enzymes,do not significantly inhibit or induce liver enzymes
same,route of excretion,[5],mainly excreted in feces
same,tissue distribution,[5],widely distributed across various tissues
same,estimated clinically effective concentration (antiviral threshold),influenza virus,6.87 ng/mL
same,inhibition of transport activity of OAT1,OAT1,nor do they inhibit the transport activity
same,inhibition of transport activity of OATP1B3,OATP1B3,nor do they inhibit the transport activity
same,C24,[6]; all tested dose cohorts (20 mg–80 mg),> 6.87 ng/mL
same,time maintained above the target concentration (6.87 ng/mL),[6]; dose cohorts 20 mg–80 mg,72 to 136 h
same,inhibition of transport activity of OAT3,OAT3,nor do they inhibit the transport activity
same,time from which GP1707D07 concentrations exceed the clinical effective concentration,"[7]; GP681 20 mg + itraconazole, post-dose, threshold 6.87 ng/mL",1 h
same,GP1707D07 concentration,[7]; 0.5h,17.9 ng/mL and 0.6 ng/mL and 10.8 ng/mL and 2.8 ng/mL and 8.3 ng/mL and 1.4 ng/mL
same,GP1707D07 concentration,[7]; 1h,23.5 ng/mL and 1.8 ng/mL and 16.5 ng/mL and 6.2 ng/mL and 10.1 ng/mL and 5.6 ng/mL
same,GP1707D07 concentration,[7]; 2h,33.1 ng/mL and 4.5 ng/mL and 26.9 ng/mL and 7.2 ng/mL and 12.6 ng/mL and 9.4 ng/mL
same,GP1707D07 concentration,[7]; 3h,44.4 ng/mL and 11.9 ng/mL and 25.1 ng/mL and 6.4 ng/mL and 14.2 ng/mL and 10.4 ng/mL
same,GP1707D07 concentration,[7]; 4h,36.1 ng/mL and 13.4 ng/mL and 24.0 ng/mL and 5.7 ng/mL and 15.4 ng/mL and 11.0 ng/mL
same,GP1707D07 concentration,[7]; 5h,30.8 ng/mL and 14.9 ng/mL and 20.4 ng/mL and 7.0 ng/mL and 15.5 ng/mL and 12.0 ng/mL
same,GP1707D07 concentration,[7]; 6h,30.7 ng/mL and 18.0 ng/mL and 19.4 ng/mL and 7.0 ng/mL and 15.2 ng/mL and 11.0 ng/mL
same,GP1707D07 concentration,[7]; 8h,24.5 ng/mL and 14.2 ng/mL and 17.9 ng/mL and 6.9 ng/mL and 13.5 ng/mL and 9.5 ng/mL
same,GP1707D07 concentration,[7]; 12h,21.5 ng/mL and 12.6 ng/mL and 14.5 ng/mL and 6.6 ng/mL and 11.1 ng/mL and 8.8 ng/mL and 20.0 ng/mL
same,GP1707D07 concentration,[7]; 24h,17.5 ng/mL and 10.3 ng/mL and 12.6 ng/mL and 5.4 ng/mL and 10.1 ng/mL and 6.3 ng/mL and 14.7 ng/mL
same,GP1707D07 concentration,[7]; 36h,14.8 ng/mL and 8.1 ng/mL and 10.5 ng/mL and 4.4 ng/mL and 8.8 ng/mL and 5.4 ng/mL and 11.8 ng/mL
same,GP1707D07 concentration,[7]; 48h,12.3 ng/mL and 6.9 ng/mL and 7.4 ng/mL and 3.9 ng/mL and 6.7 ng/mL and 5.1 ng/mL and 9.0 ng/mL
same,GP1707D07 concentration,[7]; 72h,7.8 ng/mL and 5.1 ng/mL and 4.9 ng/mL and 3.2 ng/mL and 6.0 ng/mL and 3.6 ng/mL and 7.6 ng/mL
same,GP1707D07 concentration,[7]; 120h,4.8 ng/mL and 3.5 ng/mL and 3.2 ng/mL and 1.7 ng/mL and 4.0 ng/mL and 2.1 ng/mL and 3.6 ng/mL
same,GP1707D07 concentration,[7]; 168h,2.4 ng/mL and 2.0 ng/mL and 1.9 ng/mL and 1.1 ng/mL and 2.2 ng/mL and 1.3 ng/mL
same,GP1707D07 concentration,[7]; 264h,1.3 ng/mL and 1.0 ng/mL and 0.8 ng/mL and 0.7 ng/mL
same,"GP1707D07 concentration, Geo Mean","[7]; D26, 0.5h",4.4 ng/mL
same,"GP1707D07 concentration, Geo Mean","[7]; D26, 1h",8.5 ng/mL
same,"GP1707D07 concentration, Geo Mean","[7]; D26, 2h",15.2 ng/mL
same,"GP1707D07 concentration, Geo Mean","[7]; D26, 3h",17.9 ng/mL
same,"GP1707D07 concentration, Geo Mean","[7]; D26, 4h",19.7 ng/mL
same,"GP1707D07 concentration, Geo Mean","[7]; D26, 5h",20.9 ng/mL
same,"GP1707D07 concentration, Geo Mean","[7]; D26, 6h",20.4 ng/mL
same,"GP1707D07 concentration, Geo Mean","[7]; D26, 8h",19.0 ng/mL
same,"GP1707D07 concentration, Geo Mean","[7]; D26, 12h",16.7 ng/mL
same,"GP1707D07 concentration, Geo Mean","[7]; D26, 24h",14.9 ng/mL
same,"GP1707D07 concentration, Geo Mean","[7]; D26, 36h",13.5 ng/mL
same,"GP1707D07 concentration, Geo Mean","[7]; D26, 48h",12.1 ng/mL
same,"GP1707D07 concentration, Geo Mean","[7]; D26, 72h",9.6 ng/mL
same,"GP1707D07 concentration, Geo Mean","[7]; D26, 120h",6.8 ng/mL
same,"GP1707D07 concentration, Geo Mean","[7]; D26, 168h",5.1 ng/mL
same,"GP1707D07 concentration, Geo Mean","[7]; D26, 264h",3.2 ng/mL
same,"GP1707D07 concentration, Mean","[7]; D26, 0h",0.0 ng/mL
same,"GP1707D07 concentration, Mean","[7]; D26, 0.5h",6.4 ng/mL
same,"GP1707D07 concentration, Mean","[7]; D26, 1h",10.4 ng/mL
same,"GP1707D07 concentration, Mean","[7]; D26, 2h",17.0 ng/mL
same,"GP1707D07 concentration, Mean","[7]; D26, 3h",19.7 ng/mL
same,"GP1707D07 concentration, Mean","[7]; D26, 4h",21.3 ng/mL
same,"GP1707D07 concentration, Mean","[7]; D26, 5h",22.0 ng/mL
same,"GP1707D07 concentration, Mean","[7]; D26, 6h",21.6 ng/mL
same,"GP1707D07 concentration, Mean","[7]; D26, 8h",20.0 ng/mL
same,"GP1707D07 concentration, Mean","[7]; D26, 12h",17.6 ng/mL
same,"GP1707D07 concentration, Mean","[7]; D26, 24h",15.6 ng/mL
same,"GP1707D07 concentration, Mean","[7]; D26, 36h",14.2 ng/mL
same,"GP1707D07 concentration, Mean","[7]; D26, 48h",12.5 ng/mL
same,"GP1707D07 concentration, Mean","[7]; D26, 72h",10.1 ng/mL
same,"GP1707D07 concentration, Mean","[7]; D26, 120h",7.1 ng/mL
same,"GP1707D07 concentration, Mean","[7]; D26, 168h",5.4 ng/mL
same,"GP1707D07 concentration, Mean","[7]; D26, 264h",3.3 ng/mL
same,average ratio of GP1707D07 concentration at each time point (Period 2: Period 1),[7]; within 24 h post-dose,1.7–2.0
